Assay results: article PMC5537696 (2017)
One block for each molecule: values may come before it.

What was measured:
[1] = tested on: LLA (long loop ATP hairpin aptamer) (DNA, aptamer) CACCTGGGGGAGTATTGCGGAGGAAGGTTTTTTTTTTTTTTTTTTTTTTTTTTTTTTTTCCAGGTGTT; assay: surface plasmon field-enhanced fluorescence titration; details: 6 mM MgCl2; 10 mM Tris pH 7.4 (HAB); aptamer immobilised on gold; up to 12 mM guanosine
[2] = tested on: SLA (short loop ATP hairpin aptamer) (DNA, aptamer, PEG6 spacer between 29 and 30) CACCTGGGGGAGTATTGCGGAGGAAGGTTCCAGGTG; assay: surface plasmon field-enhanced fluorescence titration, Langmuir isotherm; details: 6 mM MgCl2, 10 mM Tris pH 7.4 (HAB)
[3] = tested on: LLA (long loop ATP hairpin aptamer) (DNA, aptamer) CACCTGGGGGAGTATTGCGGAGGAAGGTTTTTTTTTTTTTTTTTTTTTTTTTTTTTTTTCCAGGTGTT; assay: as above; details: 6 mM MgCl2, 10 mM Tris pH 7.4 (HAB)
[4] = aptamer immobilised, fit limited to ATP ≤2 mM, full curve deviates from Langmuir

binding [1]: no
SMILES: Nc1nc2c(ncn2[C@@H]2O[C@H](CO)[C@@H](O)[C@H]2O)c(=O)[nH]1

Kd ([2]; aptamer immobilised on gold): 90 µM | Kd ([3]; aptamer immobilised on gold): 50 µM
SMILES: Nc1ncnc2c1ncn2[C@@H]1O[C@H](CO)[C@@H](O)[C@H]1O

Kd [2, 4]: 300 µM | Kd [3, 4]: 120 µM
SMILES: Nc1ncnc2c1ncn2[C@@H]1O[C@H](COP(=O)(O)OP(=O)(O)OP(=O)(O)O)[C@@H](O)[C@H]1O
